Where only a bound is given, the exact number is not on record here.

Test [1] concerns the target T1, hACSL5 (Homo sapiens (Human), UniProt Q9ULC5). The experiment in a line: Human ACSL5 coupled enzyme Amplex Red assay. The settings on record: read-out: hACSL5 IC50. It is filed as biochemical. A digest of the protocol: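 C-terminally His-tagged ACSL5 (33-683) from sf9 cells, 20 nM, was preincubated with compound in MOPS-NaOH pH 7.6 with MgCl2, peroxidase and acyl-CoA oxidase. Reactions were started with 25 μM oleate, 30 μM CoA, 1 mM ATP and 50 μM Amplex Red; fluorescence (535/590 nm) after 10 minutes at 25° C. was fitted to the Hill equation for IC50 and maximal inhibition.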
Target sequence in this assay (Q9ULC5 33-683): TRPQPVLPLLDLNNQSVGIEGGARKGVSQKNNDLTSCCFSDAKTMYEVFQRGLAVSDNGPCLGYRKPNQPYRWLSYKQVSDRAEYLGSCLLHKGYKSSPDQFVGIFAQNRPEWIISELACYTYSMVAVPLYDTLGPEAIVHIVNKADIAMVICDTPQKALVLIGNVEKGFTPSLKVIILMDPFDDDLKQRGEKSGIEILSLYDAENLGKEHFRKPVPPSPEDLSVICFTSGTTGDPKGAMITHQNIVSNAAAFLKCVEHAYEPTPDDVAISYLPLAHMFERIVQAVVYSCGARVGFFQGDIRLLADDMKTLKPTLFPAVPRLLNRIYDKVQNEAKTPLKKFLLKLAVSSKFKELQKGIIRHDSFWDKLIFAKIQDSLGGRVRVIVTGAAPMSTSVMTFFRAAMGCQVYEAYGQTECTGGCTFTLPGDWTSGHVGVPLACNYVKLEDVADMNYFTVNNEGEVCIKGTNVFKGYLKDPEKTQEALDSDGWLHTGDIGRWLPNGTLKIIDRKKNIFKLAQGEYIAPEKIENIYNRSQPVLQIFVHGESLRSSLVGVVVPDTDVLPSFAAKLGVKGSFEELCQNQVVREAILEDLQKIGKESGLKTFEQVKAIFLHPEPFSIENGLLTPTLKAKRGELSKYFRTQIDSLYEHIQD

Test [2] concerns the target T1, hACSL5. The experiment in a line: Cell-based assay (CBA) with B12FA in hACSL5-transfected Expi293F / FlpIn TRex293 cells. Particulars: hACSL5-expressing cells. Put shortly:
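hACSL5-expressing Expi293F or tetracycline-induced FlpIn TRex293 cells, serum- and glucose-starved 1 h, then treated 3 h with serially diluted compound plus 20 µM B12FA. After fixation, 630/520 nm emission ratio (ex 485 nm) gave % inhibition versus no-inhibitor and 10 µM compound/non-induced controls; IC50 by Hill fit.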
Target sequence in this assay (Q9ULC5 whole entry): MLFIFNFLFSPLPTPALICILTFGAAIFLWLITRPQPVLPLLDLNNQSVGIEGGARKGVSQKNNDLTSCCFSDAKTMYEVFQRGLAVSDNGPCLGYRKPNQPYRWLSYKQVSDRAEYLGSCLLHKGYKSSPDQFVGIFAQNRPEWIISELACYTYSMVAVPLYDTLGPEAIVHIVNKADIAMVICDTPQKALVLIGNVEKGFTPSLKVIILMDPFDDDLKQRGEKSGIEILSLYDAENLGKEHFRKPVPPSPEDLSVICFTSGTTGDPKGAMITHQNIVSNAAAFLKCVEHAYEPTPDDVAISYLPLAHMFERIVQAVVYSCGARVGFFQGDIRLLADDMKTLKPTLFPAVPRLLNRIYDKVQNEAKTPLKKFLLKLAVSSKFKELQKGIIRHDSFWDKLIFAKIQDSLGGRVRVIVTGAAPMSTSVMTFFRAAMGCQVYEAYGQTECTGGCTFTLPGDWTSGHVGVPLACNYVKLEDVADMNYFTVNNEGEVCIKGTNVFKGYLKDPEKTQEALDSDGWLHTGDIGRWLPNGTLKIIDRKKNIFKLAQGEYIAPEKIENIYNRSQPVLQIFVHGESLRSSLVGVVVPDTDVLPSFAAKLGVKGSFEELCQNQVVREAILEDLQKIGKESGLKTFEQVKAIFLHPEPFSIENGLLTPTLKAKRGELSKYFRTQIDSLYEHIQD

For the compound `CC[C@@H](Oc1ccc(C(=O)NS(=O)(=O)c2ccc(OCCN(C)C)cc2)cc1C(F)(F)F)c1ccc(Oc2ccccn2)cn1` [(R)-N-((4-(2-(dimethylamino)ethoxy)phenyl)sulfonyl)-4-(1-(5-(pyridin-2-yloxy)pyridin-2-yl)propoxy)-3-(trifluoromethyl)benzamide], the IC50 on hACSL5 [1] and at hACSL5 [2] was under 100 nM throughout.

As for `CC[C@@H](Oc1ccc(C(=O)NS(=O)(=O)c2ccc(OC34CCN(CC3)C4)cc2)c(F)c1F)c1ccc(OCC2CC2)cn1` [(R)-N-((4-((1-azabicyclo[2.2.1]heptan-4-yl)oxy)phenyl)sulfonyl)-4-(1-(5-(cyclopropylmethoxy)pyridin-2-yl)propoxy)-2,3-difluorobenzamide], the results for the IC50 on hACSL5 [1] and against hACSL5 [2] were under 100 nM and 100 to 500 nM, respectively.

Consider `C[C@@H](Oc1ccc(C(=O)NS(=O)(=O)N2CCC(OC3CCN(C)CC3)CC2)cc1C(F)(F)F)c1ccc(Oc2ccccn2)cn1` [(R)-N-((4-((1-methylpiperidin-4-yl)oxy)piperidin-1-yl)sulfonyl)-4-(1-(5-(pyridin-2-yloxy)pyridin-2-yl)ethoxy)-3-(trifluoromethyl)benzamide], for which the IC50 at hACSL5 [1] and on hACSL5 [2] was under 100 nM throughout.

With `CC[C@@H](Oc1ccc(C(=O)NS(=O)(=O)N2CCC(OC3CCN(C)CC3)CC2)cc1C(F)(F)F)c1ccc(Oc2ccccn2)cn1` [(R)-N-((4-((1-methylpiperidin-4-yl)oxy)piperidin-1-yl)sulfonyl)-4-(1-(5-(pyridin-2-yloxy)pyridin-2-yl)propoxy)-3-(trifluoromethyl)benzamide], the IC50 at hACSL5 [1] and against hACSL5 [2] was under 100 nM throughout.

As to `CC[C@@H](Oc1ccc(C(=O)NS(=O)(=O)c2ccc(OCc3c[nH]cn3)cc2)c(F)c1F)c1ccc(OCCOC)cn1` [(R)-N-((4-((1H-imidazol-4-yl)methoxy)phenyl)sulfonyl)-2,3-difluoro-4-(1-(5-(2-methoxyethoxy)pyridin-2-yl)propoxy)benzamide], the IC50 was under 100 nM at hACSL5 [1] and over 500 nM against hACSL5 [2].

Regarding `CC[C@@H](Oc1ccc(C(=O)NS(=O)(=O)N2CCN(CC3CC3)CC2)c(F)c1F)c1ccc(Oc2ccccn2)cn1` [(R)-N-((4-(cyclopropylmethyl)piperazin-1-yl)sulfonyl)-2,3-difluoro-4-(1-(5-(pyridin-2-yloxy)pyridin-2-yl)propoxy)benzamide], the IC50 on hACSL5 [1] and against hACSL5 [2] was under 100 nM throughout.

With `CC[C@@H](Oc1ccc(C(=O)NS(=O)(=O)N2CCN(C3CCC3)CC2)c(F)c1F)c1ccc(Oc2ccccn2)cn1` [(R)-N-((4-cyclobutylpiperazin-1-yl)sulfonyl)-2,3-difluoro-4-(1-(5-(pyridin-2-yloxy)pyridin-2-yl)propoxy)benzamide], the IC50 at hACSL5 [1] and against hACSL5 [2] was under 100 nM each time.

With `CC[C@@H](Oc1ccc(C(=O)NS(=O)(=O)N2CCN(C3CCC3)CC2)c(F)c1F)c1ccc(OCC2CC2)cn1` [(R)-N-((4-cyclobutylpiperazin-1-yl)sulfonyl)-4-(1-(5-(cyclopropylmethoxy)pyridin-2-yl)propoxy)-2,3-difluorobenzamide], the IC50 on hACSL5 [1] and on hACSL5 [2] was under 100 nM throughout.

Turning to `CC[C@@H](Oc1ccc(C(=O)NS(=O)(=O)N2CCN(C3CCCCC3)CC2)c(F)c1F)c1ccc(Oc2ccccn2)cn1` [(R)-N-((4-cyclohexylpiperazin-1-yl)sulfonyl)-2,3-difluoro-4-(1-(5-(pyridin-2-yloxy)pyridin-2-yl)propoxy)benzamide], the IC50 was under 100 nM at hACSL5 [1] and 100 to 500 nM on hACSL5 [2].

As for `CC[C@@H](Oc1ccc(C(=O)NS(=O)(=O)N2CCN(C3CCCCC3)CC2)c(F)c1F)c1ccc(OCC2CC2)cn1` [(R)-N-((4-cyclohexylpiperazin-1-yl)sulfonyl)-4-(1-(5-(cyclopropylmethoxy)pyridin-2-yl)propoxy)-2,3-difluorobenzamide], the IC50 at hACSL5 [1] is under 100 nM; on hACSL5 [2] it was over 500 nM.

Consider `CC[C@@H](Oc1ccc(C(=O)NS(=O)(=O)N2CCN(C3CCCC3)CC2)c(F)c1F)c1ccc(Oc2ccccn2)cn1` [(R)-N-((4-cyclopentylpiperazin-1-yl)sulfonyl)-2,3-difluoro-4-(1-(5-(pyridin-2-yloxy)pyridin-2-yl)propoxy)benzamide], for which the IC50 on hACSL5 [1] was under 100 nM; against hACSL5 [2], 100 to 500 nM.

For the compound `CC[C@@H](Oc1ccc(C(=O)NS(=O)(=O)N2CCN(C3CCCC3)CC2)c(F)c1F)c1ccc(OCC2CC2)cn1` [(R)-N-((4-cyclopentylpiperazin-1-yl)sulfonyl)-4-(1-(5-(cyclopropylmethoxy)pyridin-2-yl)propoxy)-2,3-difluorobenzamide], the values for the 50% inhibitory concentration (IC50) at hACSL5 [1] and on hACSL5 [2] were under 100 nM and 100 to 500 nM, respectively.

Consider `CC[C@@H](Oc1ccc(C(=O)NS(=O)(=O)N2CCN(C3CC3)CC2)c(F)c1F)c1cc(Oc2ccccn2)ccn1` [(R)-N-((4-cyclopropylpiperazin-1-yl)sulfonyl)-2,3-difluoro-4-(1-(4-(pyridin-2-yloxy)pyridin-2-yl)propoxy)benzamide], for which the IC50 at hACSL5 [1] is under 100 nM; at hACSL5 [2], 100 to 500 nM.

Consider `CC[C@@H](Oc1ccc(C(=O)NS(=O)(=O)N2CCN(C3CC3)CC2)c(F)c1F)c1ccc(Oc2ccccn2)cn1` [(R)-N-((4-cyclopropylpiperazin-1-yl)sulfonyl)-2,3-difluoro-4-(1-(5-(pyridin-2-yloxy)pyridin-2-yl)propoxy)benzamide], for which the IC50 on hACSL5 [1] and against hACSL5 [2] was under 100 nM throughout.

For the compound `CC[C@@H](Oc1ccc(C(=O)NS(=O)(=O)N2CCN(CC)CC2)c(F)c1F)c1ccc(Oc2ccccn2)cn1` [(R)-N-((4-ethylpiperazin-1-yl)sulfonyl)-2,3-difluoro-4-(1-(5-(pyridin-2-yloxy)pyridin-2-yl)propoxy)benzamide], the IC50 on hACSL5 [1] and against hACSL5 [2] was under 100 nM throughout.

For the compound `CC[C@@H](Oc1ccc(C(=O)NS(=O)(=O)N2CCN(CC)CC2)cc1C(F)(F)F)c1ccc(Oc2ccccn2)cn1` [(R)-N-((4-ethylpiperazin-1-yl)sulfonyl)-4-(1-(5-(pyridin-2-yloxy)pyridin-2-yl)propoxy)-3-(trifluoromethyl)benzamide], the IC50 on hACSL5 [1] and against hACSL5 [2] was under 100 nM in each case.

`CC[C@@H](Oc1ccc(C(=O)NS(=O)(=O)N2CCN(C)CC2)cc1C(F)(F)F)c1ccc(Oc2ccccn2)cn1` [(R)-N-((4-methylpiperazin-1-yl)sulfonyl)-4-(1-(5-(pyridin-2-yloxy)pyridin-2-yl)propoxy)-3-(trifluoromethyl)benzamide]: the IC50 on hACSL5 [1] and at hACSL5 [2] was under 100 nM each time.

Turning to `CCOc1ccc(C(C)Oc2ccc(C(=O)NS(=O)(=O)c3ccc(OCCn4ccnc4)cc3)c(F)c2F)nc1` (stereo not shown) [N-((4-(2-(1H-imidazol-1-yl)ethoxy)phenyl)sulfonyl)-4-(1-(5-ethoxypyridin-2-yl)ethoxy)-2,3-difluorobenzamide], the IC50 was 100 to 500 nM on hACSL5 [1] and over 500 nM against hACSL5 [2].

For `CC[C@@H](Oc1ccc(C(=O)NS(=O)(=O)c2ccc(OCCN(C)C)cc2)c(F)c1F)c1ccc(OC2CC(OC)C2)cn1` (stereo partly drawn) [N-((4-(2-(dimethylamino)ethoxy)phenyl)sulfonyl)-2,3-difluoro-4-((R)-1-(5-((1R,3R)-3-methoxycyclobutoxy)pyridin-2-yl)propoxy)benzamide], the IC50 on hACSL5 [1] was under 100 nM; against hACSL5 [2], 100 to 500 nM.

Regarding `CC[C@@H](Oc1ccc(C(=O)NS(=O)(=O)c2ccc(OCCN(C)C)cc2)cc1C(F)(F)F)c1ccc(OC2CC(OC)C2)cn1` (stereo partly drawn) [N-((4-(2-(dimethylamino)ethoxy)phenyl)sulfonyl)-4-((R)-1-(5-((1R,3R)-3-methoxycyclobutoxy)pyridin-2-yl)propoxy)-3-(trifluoromethyl)benzamide], the IC50 on hACSL5 [1] and at hACSL5 [2] was 100 to 500 nM each time.

`CC[C@@H](Oc1ccc(C(=O)NS(=O)(=O)c2ccc(O[C@@H]3C[C@H]4C[C@@H]3CN4)cc2)c(F)c1F)c1ccc(OCC2CC2)cn1` [N-((4-(((1R,4R,5R)-2-azabicyclo[2.2.1]heptan-5-yl)oxy)phenyl)sulfonyl)-4-((R)-1-(5-(cyclopropylmethoxy)pyridin-2-yl)propoxy)-2,3-difluorobenzamide]: the IC50 is under 100 nM at hACSL5 [1] and over 500 nM at hACSL5 [2].

`CC[C@@H](Oc1ccc(C(=O)NS(=O)(=O)N2CCN(C3CC3)CC2)c(F)c1F)c1ccc(OC2CC(OC)C2)cn1` (stereo partly drawn) [N-((4-cyclopropylpiperazin-1-yl)sulfonyl)-2,3-difluoro-4-((R)-1-(5-((1R,3R)-3-methoxycyclobutoxy)pyridin-2-yl)propoxy)benzamide]: the IC50 at hACSL5 [1] is under 100 nM; against hACSL5 [2] it was 100 to 500 nM.

As for `CC[C@@H](Oc1ccc(C(=O)NS(=O)(=O)N2CCN(C)[C@@H](C)C2)c(F)c1F)c1ccc(Oc2ccccn2)cn1` [N-(((S)-3,4-dimethylpiperazin-1-yl)sulfonyl)-2,3-difluoro-4-((R)-1-(5-(pyridin-2-yloxy)pyridin-2-yl)propoxy)benzamide], the IC50 on hACSL5 [1] and at hACSL5 [2] was under 100 nM each time.

For the origin of these results see patent publication US20250275959A1, “COMPOUNDS AND METHODS OF THEIR USE” (LEXICON PHARMACEUTICALS, INC., priority 2024, published 2025).
